US12577206B2 (BRISTOL-MYERS SQUIBB COMPANY, priority 2020, dated 2026)

Experiments:
human FPR1 = target: T1, human FPR1 (Homo sapiens, UniProt P21462); test: FPR1 cyclic adenosine monophosphate (cAMP) assay; format: cell-based; conditions: CHO cells overexpressing human FPR1; forskolin 10 μM; inhibition of cAMP production; HTRF; read-out: hFPR1 cAMP2 EC50
T1 sequence (P21462 1-350): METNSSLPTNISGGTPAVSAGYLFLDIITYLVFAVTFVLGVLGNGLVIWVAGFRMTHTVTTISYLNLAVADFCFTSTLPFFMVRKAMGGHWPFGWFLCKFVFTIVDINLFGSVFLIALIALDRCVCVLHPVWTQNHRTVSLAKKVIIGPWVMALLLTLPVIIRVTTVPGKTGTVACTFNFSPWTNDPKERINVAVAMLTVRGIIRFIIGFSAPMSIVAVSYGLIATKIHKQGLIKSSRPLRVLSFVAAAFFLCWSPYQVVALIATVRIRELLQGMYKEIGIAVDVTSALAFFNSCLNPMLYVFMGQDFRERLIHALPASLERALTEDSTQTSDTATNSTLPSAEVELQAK
Procedure, shortened: (§1)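 CHO cells overexpressing human FPR1 (4,000/well) or FPR2 (2,000/well) were incubated 30 min at room temperature with compound (0.020 nM to 100 μM, 1% DMSO), IBMX 200 μM, and forskolin at 10 μM (FPR1) or 5 μM (FPR2), all final. HTRF cAMP read-out; inhibition fitted by 4-parameter logistic equation.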

human FPR2 = target: T2, human FPR2 (Homo sapiens, UniProt P25090); test: FPR2 cyclic adenosine monophosphate (cAMP) assay; format: cell-based; conditions: CHO cells overexpressing human FPR2; forskolin 5 μM; inhibition of cAMP production; HTRF; read-out: hFPR2 cAMP2 EC50
T2 sequence (P25090 1-351): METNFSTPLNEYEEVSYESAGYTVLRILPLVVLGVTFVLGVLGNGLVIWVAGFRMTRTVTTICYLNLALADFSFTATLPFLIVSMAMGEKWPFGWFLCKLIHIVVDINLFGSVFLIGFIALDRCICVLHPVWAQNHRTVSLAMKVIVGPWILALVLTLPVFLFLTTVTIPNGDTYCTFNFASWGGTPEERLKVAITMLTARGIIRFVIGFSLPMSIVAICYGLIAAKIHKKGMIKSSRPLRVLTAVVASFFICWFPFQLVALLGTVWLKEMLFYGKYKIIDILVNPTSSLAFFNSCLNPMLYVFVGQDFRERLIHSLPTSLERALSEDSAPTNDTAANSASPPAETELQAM
Procedure, shortened: as §1

Compound: COC(=O)[C@@H]1CCCN1c1ccc(C(F)(F)F)c(-n2c(=O)c(NC(=O)c3ccc(OC(F)F)cc3)c(-c3c(F)cc(OC)cc3F)n2C)n1 [Example 259, methyl (2S)-1-{6-[3-(2,6-difluoro-4-methoxyphenyl)-4-[4-(difluoromethoxy)benzamido]-2-methyl-5-oxo-2,5-dihydro-1H-pyrazol-1-yl]-5-(trifluoromethyl)pyridin-2-yl}pyrrolidine-2-carboxylate]
- EC50 (human FPR1): > 10 µM
- EC50 (human FPR2): 0.01 µM

Compound: CNC(=O)CN(C)c1ccc(C(F)(F)F)c(-n2c(=O)c(NC(=O)c3ccc(OC(F)F)cc3)c(-c3c(F)cc(OC)cc3F)n2C)n1 [Example 260, N-[5-(2,6-difluoro-4-methoxyphenyl)-1-methyl-2-(6-{methyl[(methylcarbamoyl)methyl]amino}-3-(trifluoromethyl)pyridin-2-yl)-3-oxo-2,3-dihydro-1H-pyrazol-4-yl]-4-(difluoromethoxy)benzamide]
- EC50 (human FPR1): > 10 µM
- EC50 (human FPR2): 0.01 µM

Compound: COc1cc(F)c(-c2c(NC(=O)c3ccc(OC(F)F)cc3)c(=O)n(-c3nc(N(C)CC(C)(C)O)ccc3C(F)(F)F)n2C)c(F)c1 [Example 261, N-[5-(2,6-difluoro-4-methoxyphenyl)-2-{6-[(2-hydroxy-2-methylpropyl)(methyl)amino]-3-(trifluoromethyl)pyridin-2-yl}-1-methyl-3-oxo-2,3-dihydro-1H-pyrazol-4-yl]-4-(difluoromethoxy)benzamide]
- EC50 (human FPR1): > 5 µM
- EC50 (human FPR2): 0.002 µM

Compound: COc1ccc(-c2c(NC(=O)c3ccc(OC(F)F)cc3)c(=O)n(-c3ncccc3Cl)n2C)c(F)c1 [Example 262, N-[2-(3-chloropyridin-2-yl)-5-(2-fluoro-4-methoxyphenyl)-1-methyl-3-oxo-2,3-dihydro-1H-pyrazol-4-yl]-4-(difluoromethoxy)benzamide]
- EC50 (human FPR1): 2 µM
- EC50 (human FPR2): 0.025 µM

Compound: COc1ccc(-c2c(NC(=O)c3ccc(OC(F)F)cc3)c(=O)n(-c3ncccc3C(F)(F)F)n2C)c(F)c1 [Example 263, 4-(difluoromethoxy)-N-[5-(2-fluoro-4-methoxyphenyl)-1-methyl-3-oxo-2-[3-(trifluoromethyl)pyridin-2-yl]-2,3-dihydro-1H-pyrazol-4-yl]benzamide]
- EC50 (human FPR1): 1.7 µM
- EC50 (human FPR2): 0.008 µM

Compound: COc1cc(F)c(-c2c(NC(=O)c3ccc(OC(F)F)cc3)c(=O)n(-c3nc(NCC4CC4)ccc3C(F)(F)F)n2C)c(F)c1 [Example 264, N-(2-{6-[(cyclopropylmethyl)amino]-3-(trifluoromethyl)pyridin-2-yl}-5-(2,6-difluoro-4-methoxyphenyl)-1-methyl-3-oxo-2,3-dihydro-1H-pyrazol-4-yl)-4-(difluoromethoxy)benzamide]
- EC50 (human FPR1): > 5 µM
- EC50 (human FPR2): 0.002 µM

Compound: COc1cc(F)c(-c2c(NC(=O)c3ccc(OC(F)F)cc3)c(=O)n(-c3nc(NC(C)(C)C)ccc3C(F)(F)F)n2C)c(F)c1 [Example 265, N-{2-[6-(tert-butylamino)-3-(trifluoromethyl)pyridin-2-yl]-5-(2,6-difluoro-4-methoxyphenyl)-1-methyl-3-oxo-2,3-dihydro-1H-pyrazol-4-yl}-4-(difluoromethoxy)benzamide]
- EC50 (human FPR1): > 10 µM
- EC50 (human FPR2): 0.002 µM

Compound: COc1cc(F)c(-c2c(NC(=O)c3ccc(OC(F)F)cc3)c(=O)n(-c3nc(NC4(C)CC4)ccc3C(F)(F)F)n2C)c(F)c1 [Example 266, N-[5-(2,6-difluoro-4-methoxyphenyl)-1-methyl-2-{6-[(1-methylcyclopropyl)amino]-3-(trifluoromethyl)pyridin-2-yl}-3-oxo-2,3-dihydro-1H-pyrazol-4-yl]-4-(difluoromethoxy)benzamide]
- EC50 (human FPR1): > 10 µM
- EC50 (human FPR2): 0.004 µM

Compound: COc1cc(F)c(-c2c(NC(=O)c3ccc(OC(F)F)cc3)c(=O)n(-c3nc(N(C4CC4)C4CC4)ccc3C(F)(F)F)n2C)c(F)c1 [Example 267, N-{2-[6-(dicyclopropylamino)-3-(trifluoromethyl)pyridin-2-yl]-5-(2,6-difluoro-4-methoxyphenyl)-1-methyl-3-oxo-2,3-dihydro-1H-pyrazol-4-yl}-4-(difluoromethoxy)benzamide]
- EC50 (human FPR1): 7.1 µM
- EC50 (human FPR2): 0.002 µM

Compound: COc1cc(F)c(-c2c(NC(=O)c3ccc(OC(F)F)cc3)c(=O)n(-c3nc(N4CCN(S(C)(=O)=O)CC4)ccc3C(F)(F)F)n2C)c(F)c1 [Example 268, N-[5-(2,6-difluoro-4-methoxyphenyl)-2-[6-(4-methanesulfonylpiperazin-1-yl)-3-(trifluoromethyl)pyridin-2-yl]-1-methyl-3-oxo-2,3-dihydro-1H-pyrazol-4-yl]-4-(difluoromethoxy)benzamide]
- EC50 (human FPR1): 1.5 µM
- EC50 (human FPR2): 0.002 µM

Compound: COc1cc(F)c(-c2c(NC(=O)c3ccc(OC(F)F)cc3)c(=O)n(-c3nc(N4CCN(CC(F)(F)F)CC4)ccc3C(F)(F)F)n2C)c(F)c1 [Example 269, N-[5-(2,6-difluoro-4-methoxyphenyl)-1-methyl-3-oxo-2-{6-[4-(2,2,2-trifluoroethyl)piperazin-1-yl]-3-(trifluoromethyl)pyridin-2-yl}-2,3-dihydro-1H-pyrazol-4-yl]-4-(difluoromethoxy)benzamide]
- EC50 (human FPR1): 3.3 µM
- EC50 (human FPR2): 0.003 µM

Compound: COc1cc(F)c(-c2c(NC(=O)c3ccc(OC(F)F)cc3)c(=O)n(-c3nc(N4CCN(CC(F)F)CC4)ccc3C(F)(F)F)n2C)c(F)c1 [Example 270, N-[5-(2,6-difluoro-4-methoxyphenyl)-2-{6-[4-(2,2-difluoroethyl)piperazin-1-yl]-3-(trifluoromethyl)pyridin-2-yl}-1-methyl-3-oxo-2,3-dihydro-1H-pyrazol-4-yl]-4-(difluoromethoxy)benzamide]
- EC50 (human FPR1): 3.4 µM
- EC50 (human FPR2): 0.006 µM

Compound: COc1cc(F)c(-c2c(NC(=O)c3ccc(OC(F)F)cc3)c(=O)n(-c3nc(NCC(C)(C)O)ccc3C(F)(F)F)n2C)c(F)c1 [Example 271, N-[5-(2,6-difluoro-4-methoxyphenyl)-2-{6-[(2-hydroxy-2-methylpropyl)amino]-3-(trifluoromethyl)pyridin-2-yl}-1-methyl-3-oxo-2,3-dihydro-1H-pyrazol-4-yl]-4-(difluoromethoxy)benzamide]
- EC50 (human FPR1): > 10 µM
- EC50 (human FPR2): 0.003 µM

Compound: COc1cc(F)c(-c2c(NC(=O)c3ccc(OC(F)F)cc3)c(=O)n(-c3nc(NC[C@H](C)O)ccc3C(F)(F)F)n2C)c(F)c1 [Example 272, N-[5-(2,6-difluoro-4-methoxyphenyl)-2-(6-{[(2S)-2-hydroxypropyl]amino}-3-(trifluoromethyl)pyridin-2-yl)-1-methyl-3-oxo-2,3-dihydro-1H-pyrazol-4-yl]-4-(difluoromethoxy)benzamide]
- EC50 (human FPR1): > 10 µM
- EC50 (human FPR2): 0.001 µM

Compound: COc1cc(F)c(-c2c(NC(=O)c3ccc(OC(F)F)cc3)c(=O)n(-c3nc(NC[C@@H](C)O)ccc3C(F)(F)F)n2C)c(F)c1 [Example 273]
- EC50 (human FPR1): > 5 µM
- EC50 (human FPR2): 0.003 µM

Compound: COc1cc(F)c(-c2c(NC(=O)c3ccc(OC(F)F)cc3)c(=O)n(-c3nc(NC[C@H](O)C(F)(F)F)ccc3C(F)(F)F)n2C)c(F)c1 [Example 274, N-[5-(2,6-difluoro-4-methoxyphenyl)-1-methyl-3-oxo-2-(6-{[(2S)-3,3,3-trifluoro-2-hydroxypropyl]amino}-3-(trifluoromethyl)pyridin-2-yl)-2,3-dihydro-1H-pyrazol-4-yl]-4-(difluoromethoxy)benzamide]
- EC50 (human FPR1): > 5 µM
- EC50 (human FPR2): 0.002 µM

Compound: COc1cc(F)c(-c2c(NC(=O)c3ccc(OC(F)F)cc3)c(=O)n(-c3nc(C(C)(C)O)ccc3C(F)(F)F)n2C)c(F)c1 [Example 275, N-[5-(2,6-difluoro-4-methoxyphenyl)-2-[6-(2-hydroxypropan-2-yl)-3-(trifluoromethyl)pyridin-2-yl]-1-methyl-3-oxo-2,3-dihydro-1H-pyrazol-4-yl]-4-(difluoromethoxy)benzamide]
- EC50 (human FPR1): > 10 µM
- EC50 (human FPR2): 0.005 µM

Compound: COc1cc(F)c(-c2c(NC(=O)c3ccc(OC(F)F)cc3)c(=O)n(-c3nc(C(C)(C)O)ccc3Cl)n2C)c(F)c1 [Example 276, N-{2-[3-chloro-6-(2-hydroxypropan-2-yl)pyridin-2-yl]-5-(2,6-difluoro-4-methoxyphenyl)-1-methyl-3-oxo-2,3-dihydro-1H-pyrazol-4-yl}-4-(difluoromethoxy)benzamide]
- EC50 (human FPR1): 2.89 µM
- EC50 (human FPR2): 0.004 µM

Compound: Cn1c(-c2ccc(C3CC3)cc2)c(NC(=O)c2ccc(OC(F)F)cc2)c(=O)n1-c1ncccc1C(F)(F)F [Example 277, N-[5-(4-cyclopropylphenyl)-1-methyl-3-oxo-2-[3-(trifluoromethyl)pyridin-2-yl]-2,3-dihydro-1H-pyrazol-4-yl]-4-(difluoromethoxy)benzamide]
- EC50 (human FPR1): 0.73 µM
- EC50 (human FPR2): 0.017 µM
